What was measured:
Type in all cases: in vivo
[1] = tested on: field corn (Zea mays L., var. Dekalb 535, CORN); assay: Post-emerge test, crop safety; conditions: phytotoxicity rating 0-100 (0 no damage, 100 complete death), 14 days after application
Method in brief: (§1)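 Compounds in acetone were track-sprayed at 187 l/ha, 15–1000 g ai/ha, onto sandy loam pots. Pre-emerge seeds were sown one day before spraying, with surface watering afterwards. Post-emerge plants were at the 2–3 leaf stage and sprayed with 0.25% v/v non-ionic surfactant. Injury was rated 0–100 at 14 days.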

[2] = tested on: upland rice (Oryza sp., var. Tebonnet, RICE); assay: Post-emerge test, crop safety; conditions: phytotoxicity rating 0-100 (0 no damage, 100 complete death), 14 days after application
Method in brief: as §1

[3] = tested on: velvetleaf (Abutilon theophrasti, ABUTH); assay: Post-emerge test, greenhouse herbicide activity screening; conditions: phytotoxicity rating 0-100 (0 no damage, 100 complete death), 14 days after application
Method in brief: (§2)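 Plants grown in 10 cm pots of sandy loam mix received acetone-dissolved compounds through a moving flat-fan nozzle. Doses ranged from 15 to 1000 g ai/ha. Pre-emerge pots were seeded one day earlier, post-emerge pots 8–21 days earlier. Fourteen days on, each pot was graded 0–100 for damage.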

[4] = tested on: barnyardgrass (Echinochloa crus-galli, ECHCG); assay: as above; conditions: phytotoxicity rating 0-100 (0 no damage, 100 complete death), 14 days after application
Method in brief: as §2

[5] = tested on: large crabgrass (Digitaria sanguinalis, DIGSA); assay: as above; conditions: phytotoxicity rating 0-100 (0 no damage, 100 complete death), 14 days after application
Method in brief: as §2

[6] = tested on: lambsquarters (Chenopodium album, CHEAL); assay: as above; conditions: phytotoxicity rating 0-100 (0 no damage, 100 complete death), 14 days after application
Method in brief: as §2

[7] = tested on: sicklepod (Cassia obtusifolia, CASOB); assay: as above; conditions: phytotoxicity rating 0-100 (0 no damage, 100 complete death), 14 days after application
Method in brief: as §2

[8] = tested on: ivyleaf morningglory (Ipomoea hederacea, IPOHE); assay: as above; conditions: phytotoxicity rating 0-100 (0 no damage, 100 complete death), 14 days after application
Method in brief: as §2

[9] = tested on: redroot pigweed (Amaranthus retroflexus, AMARE); assay: as above; conditions: phytotoxicity rating 0-100 (0 no damage, 100 complete death), 14 days after application
Method in brief: as §2

[10] = tested on: green foxtail (Setaria viridis, SETVI); assay: as above; conditions: phytotoxicity rating 0-100 (0 no damage, 100 complete death), 14 days after application
Method in brief: as §2

[11] = tested on: johnsongrass (Sorghum halepense, SORHA); assay: as above; conditions: phytotoxicity rating 0-100 (0 no damage, 100 complete death), 14 days after application
Method in brief: as §2

[12] = tested on: common ragweed (Ambrosia artemisizfolia L., AMBEL); assay: as above; conditions: phytotoxicity rating 0-100 (0 no damage, 100 complete death), 14 days after application
Method in brief: as §2

[13] = tested on: field corn (Zea mays L., var. Dekalb 535, CORN); assay: Pre-emerge test, crop safety; conditions: pre-emerge, rated 14 days after application, 0 = no damage, 100 = complete death
Method in brief: (§3)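 Compounds in acetone were track-sprayed at 15-1000 g ai/ha (187 l/ha) on sandy loam pots: pre-emerge one day after seeding, post-emerge at 2-3 leaf stage with 0.25% v/v non-ionic surfactant. Phytotoxicity was rated 14 days later on a 0 (no damage) to 100 (complete death) scale.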

[14] = tested on: upland rice (Oryza sp., var. Tebonnet, RICE); assay: Pre-emerge test, crop safety; conditions: pre-emerge, rated 14 days after application, 0 = no damage, 100 = complete death
Method in brief: as §3

[15] = tested on: velvetleaf (Abutilon theophrasti, ABUTH); assay: Pre-emerge test, greenhouse herbicide activity screening; conditions: pre-emerge, rated 14 days after application, 0 = no damage, 100 = complete death
Method in brief: as §1

[16] = tested on: barnyardgrass (Echinochloa crus-galli, ECHCG); assay: as above; conditions: pre-emerge, rated 14 days after application, 0 = no damage, 100 = complete death
Method in brief: as §1

[17] = tested on: large crabgrass (Digitaria sanguinalis, DIGSA); assay: as above; conditions: pre-emerge, rated 14 days after application, 0 = no damage, 100 = complete death
Method in brief: as §1

[18] = tested on: lambsquarters (Chenopodium album, CHEAL); assay: as above; conditions: pre-emerge, rated 14 days after application, 0 = no damage, 100 = complete death
Method in brief: as §1

[19] = tested on: sicklepod (Cassia obtusifolia, CASOB); assay: as above; conditions: pre-emerge, rated 14 days after application, 0 = no damage, 100 = complete death
Method in brief: as §1

[20] = tested on: ivyleaf morningglory (Ipomoea hederacea, IPOHE); assay: as above; conditions: pre-emerge, rated 14 days after application, 0 = no damage, 100 = complete death
Method in brief: as §1

[21] = tested on: green foxtail (Setaria viridis, SETVI); assay: as above; conditions: pre-emerge, rated 14 days after application, 0 = no damage, 100 = complete death
Method in brief: as §1

[22] = tested on: johnsongrass (Sorghum halepense, SORHA); assay: as above; conditions: pre-emerge, rated 14 days after application, 0 = no damage, 100 = complete death
Method in brief: as §1

[23] = tested on: common ragweed (Ambrosia artemisizfolia L., AMBEL); assay: as above; conditions: pre-emerge, rated 14 days after application, 0 = no damage, 100 = complete death
Method in brief: as §1

[24] = tested on: redroot pigweed (Amaranthus retroflexus, AMARE); assay: as above; conditions: pre-emerge, rated 14 days after application, 0 = no damage, 100 = complete death
Method in brief: as §1

CCCc1ccc(C(=O)N(C(=O)c2ccc(CCC)cc2)c2c(OC)c(Cl)cc(F)c2-n2c(=O)cc(C(F)(F)F)n(C)c2=O)cc1 [2-29]
50: Post-emerge Herbicidal Activity SETVI ([10]; 250 g ai/ha) | Post-emerge Herbicidal Activity AMBEL ([12]; 63 g ai/ha) | Pre-emerge Herbicidal Activity ECHCG (phytotoxicity rating, scale 0-100) ([16]; 250 g ai/ha)
100: Post-emerge Herbicidal Activity ABUTH ([3]; 63 g ai/ha) | Post-emerge Herbicidal Activity ABUTH ([3]; 250 g ai/ha) | Post-emerge Herbicidal Activity IPOHE ([8]; 250 g ai/ha) | Post-emerge Herbicidal Activity AMARE ([9]; 250 g ai/ha) | Pre-emerge Herbicidal Activity ABUTH (phytotoxicity rating, scale 0-100) ([15]; 63 g ai/ha) | Pre-emerge Herbicidal Activity ABUTH (phytotoxicity rating, scale 0-100) ([15]; 250 g ai/ha) | Pre-emerge Herbicidal Activity CHEAL (phytotoxicity rating, scale 0-100) ([18]; 63 g ai/ha) | Pre-emerge Herbicidal Activity CHEAL (phytotoxicity rating, scale 0-100) ([18]; 250 g ai/ha) | Pre-emerge Herbicidal Activity CASOB (phytotoxicity rating, scale 0-100) ([19]; 250 g ai/ha) | Pre-emerge Herbicidal Activity IPOHE (phytotoxicity rating, scale 0-100) ([20]; 250 g ai/ha) | Pre-emerge Herbicidal Activity SETVI (phytotoxicity rating, scale 0-100) ([21]; 63 g ai/ha) | Pre-emerge Herbicidal Activity SETVI (phytotoxicity rating, scale 0-100) ([21]; 250 g ai/ha) | Pre-emerge Herbicidal Activity AMARE (phytotoxicity rating, scale 0-100) ([24]; 63 g ai/ha) | Pre-emerge Herbicidal Activity AMARE (phytotoxicity rating, scale 0-100) ([24]; 250 g ai/ha)
25: Post-emerge Herbicidal Activity CORN (crop damage) ([1]; 250 g ai/ha)
60: Post-emerge Herbicidal Activity RICE (crop damage) ([2]; 250 g ai/ha) | Post-emerge Herbicidal Activity AMBEL ([12]; 250 g ai/ha) | Pre-emerge Herbicidal Activity DIGSA (phytotoxicity rating, scale 0-100) ([17]; 63 g ai/ha) | Pre-emerge Herbicidal Activity CASOB (phytotoxicity rating, scale 0-100) ([19]; 63 g ai/ha) | Pre-emerge Herbicidal Activity AMBEL (phytotoxicity rating, scale 0-100) ([23]; 250 g ai/ha)
30: Pre-emerge Herbicidal Activity IPOHE (phytotoxicity rating, scale 0-100) ([20]; 63 g ai/ha)
65: Pre-emerge crop damage RICE (phytotoxicity rating, scale 0-100) ([14]; 250 g ai/ha)
80: Post-emerge Herbicidal Activity CHEAL ([6]; 63 g ai/ha) | Pre-emerge Herbicidal Activity SORHA (phytotoxicity rating, scale 0-100) ([22]; 250 g ai/ha)
75: Post-emerge Herbicidal Activity IPOHE ([8]; 63 g ai/ha)
10: Post-emerge Herbicidal Activity CORN (crop damage) ([1]; 63 g ai/ha) | Post-emerge Herbicidal Activity SORHA ([11]; 250 g ai/ha)
20: Post-emerge Herbicidal Activity ECHCG ([4]; 250 g ai/ha) | Post-emerge Herbicidal Activity DIGSA ([5]; 250 g ai/ha) | Post-emerge Herbicidal Activity CASOB ([7]; 63 g ai/ha) | Post-emerge Herbicidal Activity SETVI ([10]; 63 g ai/ha)
40: Post-emerge Herbicidal Activity RICE (crop damage) ([2]; 63 g ai/ha) | Post-emerge Herbicidal Activity CASOB ([7]; 250 g ai/ha) | Pre-emerge crop damage RICE (phytotoxicity rating, scale 0-100) ([14]; 63 g ai/ha)
15: Pre-emerge crop damage CORN (phytotoxicity rating, scale 0-100) ([13]; 250 g ai/ha)
0: Post-emerge Herbicidal Activity ECHCG ([4]; 63 g ai/ha) | Post-emerge Herbicidal Activity DIGSA ([5]; 63 g ai/ha) | Post-emerge Herbicidal Activity SORHA ([11]; 63 g ai/ha) | Pre-emerge crop damage CORN (phytotoxicity rating, scale 0-100) ([13]; 63 g ai/ha) | Pre-emerge Herbicidal Activity ECHCG (phytotoxicity rating, scale 0-100) ([16]; 63 g ai/ha) | Pre-emerge Herbicidal Activity SORHA (phytotoxicity rating, scale 0-100) ([22]; 63 g ai/ha) | Pre-emerge Herbicidal Activity AMBEL (phytotoxicity rating, scale 0-100) ([23]; 63 g ai/ha)
90: Post-emerge Herbicidal Activity CHEAL ([6]; 250 g ai/ha) | Post-emerge Herbicidal Activity AMARE ([9]; 63 g ai/ha) | Pre-emerge Herbicidal Activity DIGSA (phytotoxicity rating, scale 0-100) ([17]; 250 g ai/ha)

Reference: patent US6355799B1, “Substituted benzene compounds, process for their preparation, and herbicidal and defoliant compositions containing them” (ISK Americas Incorporated, priority 1997, dated 2002)
